Each structure is given as a SMILES string.

The first test concerns the target T1, Renin (Homo sapiens, UniProt P00797).
T1 sequence (P00797 whole entry): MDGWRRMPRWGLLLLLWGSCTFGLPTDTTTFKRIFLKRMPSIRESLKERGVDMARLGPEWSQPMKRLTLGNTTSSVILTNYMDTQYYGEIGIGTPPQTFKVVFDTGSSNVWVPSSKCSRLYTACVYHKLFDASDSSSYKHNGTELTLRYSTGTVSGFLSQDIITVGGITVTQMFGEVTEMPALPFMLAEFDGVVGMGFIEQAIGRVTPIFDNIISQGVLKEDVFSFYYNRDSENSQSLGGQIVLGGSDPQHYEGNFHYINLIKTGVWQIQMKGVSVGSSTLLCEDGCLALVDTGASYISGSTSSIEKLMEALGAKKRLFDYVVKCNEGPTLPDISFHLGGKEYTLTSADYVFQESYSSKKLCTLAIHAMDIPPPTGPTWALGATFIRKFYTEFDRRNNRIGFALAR
The test is classed as cell-free, Plasma.
`CCCC[C@H](O[C@@H](Cc1ccccc1)C(=O)N1CCC(OCOC)CC1)C(=O)N[C@@H](CC1CCCCC1)[C@@H](O)C[C@H](C(=O)NCCC[N+](C)(C)[O-])C(C)C` displayed a half-maximal inhibitory concentration (IC50) of 5 nM. In turn, `CCCNC(=O)N[C@@H](C[C@H](O)[C@H](CC1CCCCC1)NC(=O)[C@H](Cc1c[nH]cn1)NC(=O)[C@H](Cc1ccccc1)NC(=O)OC(C)(C)C)C(C)C` returned an IC50 of 83 nM. Compound `CC(C)[C@H](C[C@H](O)[C@H](CC1CCCCC1)NC(=O)[C@H](Cc1cnc[nH]1)NC(=O)[C@H](Cc1ccccc1)NC(=O)OC(C)(C)C)NC(=O)OCCCN(C)C` had an IC50 of 17 nM. `CCCC[C@H](O[C@@H](Cc1ccccc1)C(=O)N1CCC(OCOC)CC1)C(=O)N[C@@H](CC1CCCCC1)[C@@H](O)C[C@H](NC(=O)OCCC(C)C)C(C)C` returned a half-maximal inhibitory concentration (IC50) of 56 nM.

In the case of `CCCC[C@H](O[C@@H](Cc1ccccc1)C(=O)N1CCC(OCOC)CC1)C(=O)N[C@@H](CC1CCCCC1)[C@@H](O)C[C@H](NC(=O)OCc1ccccc1)C(C)C`, the midpoint of inhibition, the IC50, lay at 83 nM. Compound `CCCC[C@H](O[C@@H](Cc1ccccc1)C(=O)N1CCC(OCOC)CC1)C(=O)N[C@@H](CC1CCCCC1)[C@@H](O)C[C@H](NC(=O)NCCC)C(C)C` returned an IC50 of 16 nM. `CCCC[C@H](O[C@@H](Cc1ccccc1)C(=O)N1CCC(OCOC)CC1)C(=O)N[C@@H](CC1CCCCC1)[C@@H](O)C[C@H](C(=O)NCCC[N+]1([O-])CCOCC1)C(C)C` returned an IC50 of 3.5 nM. `CCCCC(=O)N[C@@H](C[C@H](O)[C@H](CC1CCCCC1)NC(=O)[C@H](CCCC)O[C@@H](Cc1ccccc1)C(=O)N1CCC(OCOC)CC1)C(C)C` yielded an IC50 of 53 nM.

`CC(C)[C@H](C[C@H](O)[C@H](CC1CCCCC1)NC(=O)[C@H](Cc1c[nH]cn1)NC(=O)[C@H](Cc1ccccc1)NC(=O)OC(C)(C)C)NC(=O)OCCN1CCCC1` had a 50% inhibitory concentration (IC50) of 28 nM. Regarding `CCCCC(=O)N[C@@H](C[C@H](O)[C@H](CC1CCCCC1)NC(=O)[C@H](Cc1c[nH]cn1)NC(=O)[C@H](Cc1ccccc1)NC(=O)OC(C)(C)C)C(C)C`, the 50% inhibitory concentration (IC50) worked out at 200 nM. Compound `CC(C)[C@H](C[C@H](O)[C@H](CC1CCCCC1)NC(=O)[C@H](Cc1c[nH]cn1)NC(=O)[C@H](Cc1ccccc1)NC(=O)OC(C)(C)C)NC(=O)OCCc1ccccn1` returned a half-inhibitory concentration (IC50) of 17 nM.

Compound `CC(C)[C@H](C[C@H](O)[C@H](CC1CCCCC1)NC(=O)[C@H](Cc1c[nH]cn1)NC(=O)[C@H](Cc1ccccc1)NC(=O)OC(C)(C)C)NC(=O)OCCN(C)C` registered a half-inhibitory concentration (IC50) of 12 nM. As for `CC(C)[C@H](C[C@H](O)[C@H](CC1CCCCC1)NC(=O)[C@H](Cc1cnc[nH]1)NC(=O)[C@H](Cc1ccccc1)NC(=O)OC(C)(C)C)NC(=O)OCCN1CCOCC1`, the 50% inhibitory concentration (IC50) came to 4.7 nM.

The target in another test is T1, Renin. In words: In vitro activity against human renin (pH 6.0).
Regarding `CC(C)[C@H](C[C@H](O)[C@H](CC1CCCCC1)NC(=O)[C@H](Cc1c[nH]cn1)NC(=O)[C@H](Cc1ccccc1)NC(=O)OC(C)(C)C)NS(C)(=O)=O`, the IC50 was determined as 28 nM. On to `CCCC[C@H](O[C@@H](Cc1ccccc1)C(=O)N1CCC(OCOC)CC1)C(=O)N[C@@H](CC1CCCCC1)[C@@H](O)C[C@H](N)C(C)C`, for which the IC50 came to 110 nM.

The compound `CC(C)[C@H](C[C@H](O)[C@H](CC1CCCCC1)NC(=O)[C@H](Cc1c[nH]cn1)NC(=O)[C@H](Cc1ccccc1)NC(=O)OC(C)(C)C)NC(=O)OCc1ccccc1` came in with a 50% inhibitory concentration (IC50) of 11 nM. Compound `CCCNC(=O)N[C@@H](C[C@H](O)[C@H](CC1CCCCC1)NC(=O)[C@H](Cc1c[nH]cn1)NC(=O)[C@H](Cc1ccccc1)NC(=O)OC(C)(C)C)C(C)C` returned a half-maximal inhibitory concentration (IC50) of 2.7 nM. Still for that read-out and setting: the figure for `CC(C)[C@H](C[C@H](O)[C@H](CC1CCCCC1)NC(=O)[C@H](Cc1cnc[nH]1)NC(=O)[C@H](Cc1ccccc1)NC(=O)OC(C)(C)C)NC(=O)OCCCN(C)C` is 2.8 nM. In turn, `CCCC[C@H](O[C@@H](Cc1ccccc1)C(=O)N1CCC(OCOC)CC1)C(=O)N[C@@H](CC1CCCCC1)[C@@H](O)C[C@H](NC(=O)OCCC(C)C)C(C)C` yielded an IC50 of 5 nM. `CCCC[C@H](O[C@@H](Cc1ccccc1)C(=O)N1CCC(OCOC)CC1)C(=O)N[C@@H](CC1CCCCC1)[C@@H](O)C[C@H](NC(=O)OCc1ccccc1)C(C)C` registered an IC50 of 2.2 nM.

In turn, `CCCC[C@H](O[C@@H](Cc1ccccc1)C(=O)N1CCC(OCOC)CC1)C(=O)N[C@@H](CC1CCCCC1)[C@@H](O)C[C@H](NC(=O)NCCC)C(C)C` gave an IC50 of 2.4 nM.

In the case of `CCCC[C@H](O[C@@H](Cc1ccccc1)C(=O)N1CCC(OCOC)CC1)C(=O)N[C@@H](CC1CCCCC1)[C@@H](O)C[C@H](C(=O)NCCC[N+]1([O-])CCOCC1)C(C)C`, the IC50 was 1.3 nM. `CC(C)[C@H](C[C@H](O)[C@H](CC1CCCCC1)NC(=O)[C@H](Cc1c[nH]cn1)NC(=O)[C@H](Cc1ccccc1)NC(=O)OC(C)(C)C)NC(=O)OCCN1CCCC1` returned an IC50 of 2.7 nM. `CC(C)[C@H](C[C@H](O)[C@H](CC1CCCCC1)NC(=O)[C@H](Cc1c[nH]cn1)NC(=O)[C@H](Cc1ccccc1)NC(=O)OC(C)(C)C)NS(=O)(=O)C(C)C` registered a half-inhibitory concentration (IC50) of 67 nM. For the compound `CCCCC(=O)N[C@@H](C[C@H](O)[C@H](CC1CCCCC1)NC(=O)[C@H](Cc1c[nH]cn1)NC(=O)[C@H](Cc1ccccc1)NC(=O)OC(C)(C)C)C(C)C`, the IC50 turned out to be 6 nM.

Compound `CC(C)[C@H](C[C@H](O)[C@H](CC1CCCCC1)NC(=O)[C@H](Cc1c[nH]cn1)NC(=O)[C@H](Cc1ccccc1)NC(=O)OC(C)(C)C)NC(=O)OCCc1ccccn1` gave an IC50 of 1.3 nM. On the same count and under the same terms, the figure for `CC(C)[C@H](C[C@H](O)[C@H](CC1CCCCC1)NC(=O)[C@H](Cc1c[nH]cn1)NC(=O)[C@H](Cc1ccccc1)NC(=O)OC(C)(C)C)NC(=O)OCCN(C)C` is 2.3 nM.

Consider `CC(C)[C@H](C[C@H](O)[C@H](CC1CCCCC1)NC(=O)[C@H](Cc1cnc[nH]1)NC(=O)[C@H](Cc1ccccc1)NC(=O)OC(C)(C)C)NC(=O)OCCN1CCOCC1`, for which the IC50 was 1.3 nM.

For the origin of these results see ChEMBL document CHEMBL1126033, “C-terminal modifications of nonpeptide renin inhibitors: improved oral bioavailability via modification of physicochemical properties” (J Med Chem, 1992).
